Consider 3 compounds from ChEMBL document CHEMBL1132238, “A peptide agonist acts by occupation of a monomeric G protein-coupled receptor: dual sites of covalent attachment to domains near TM1 and TM7 of the same molecule make biologically significant domain-swapped dimerization unlikely” (J Med Chem, 1999).

In general, EC50 refers to the concentration needed to bring the measured effect to its halfway point.

In this assay the target is T1, Cholecystokinin receptor (Homo sapiens, UniProt P32239+P32238).
T1 sequence (P32239 whole entry): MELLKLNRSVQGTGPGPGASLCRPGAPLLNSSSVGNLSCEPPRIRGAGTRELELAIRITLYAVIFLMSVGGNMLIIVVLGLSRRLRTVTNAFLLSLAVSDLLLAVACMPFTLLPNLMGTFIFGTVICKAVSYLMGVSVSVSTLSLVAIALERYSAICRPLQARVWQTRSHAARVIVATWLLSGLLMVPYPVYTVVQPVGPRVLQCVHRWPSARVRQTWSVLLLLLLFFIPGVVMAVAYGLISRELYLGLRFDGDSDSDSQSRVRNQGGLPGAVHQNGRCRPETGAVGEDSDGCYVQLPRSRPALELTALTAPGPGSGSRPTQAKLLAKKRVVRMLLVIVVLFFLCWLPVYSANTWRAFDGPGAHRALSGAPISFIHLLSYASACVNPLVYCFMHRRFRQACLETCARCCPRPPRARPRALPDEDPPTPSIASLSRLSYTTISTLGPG
T1 sequence (P32238 whole entry): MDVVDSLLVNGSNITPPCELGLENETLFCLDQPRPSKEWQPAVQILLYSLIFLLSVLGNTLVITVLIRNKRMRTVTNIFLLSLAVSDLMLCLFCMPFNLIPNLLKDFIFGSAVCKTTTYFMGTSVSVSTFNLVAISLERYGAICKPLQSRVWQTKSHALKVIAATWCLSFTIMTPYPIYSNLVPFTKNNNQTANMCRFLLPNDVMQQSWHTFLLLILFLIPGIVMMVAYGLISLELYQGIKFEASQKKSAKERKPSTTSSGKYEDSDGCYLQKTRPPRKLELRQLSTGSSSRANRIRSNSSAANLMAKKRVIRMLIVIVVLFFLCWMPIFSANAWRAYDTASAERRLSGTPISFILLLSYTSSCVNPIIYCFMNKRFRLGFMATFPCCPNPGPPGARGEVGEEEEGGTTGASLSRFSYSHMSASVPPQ
Nature of the assay: Ability to stimulate intracellular calcium response was determined using CCK receptor-bearing chinese hamster ovary cell line. The class given is functional, cell-based, Cricetulus griseus.
On to `CCCC[C@H](NC(=O)[C@H](Cc1c[nH]c2ccccc12)NC(=O)[C@H](Cc1ccc(C(=O)c2ccccc2)cc1)NC(=O)[C@H](CCCC)NC(=O)[C@H](Cc1ccc(OS(=O)(=O)O)cc1)NC(=O)[C@H](CC(=O)O)NC(=O)CNC(=O)[C@H](N)Cc1ccc(O)cc1)C(=O)N[C@@H](CC(=O)O)C(=O)N[C@@H](Cc1ccccc1)C(N)=O`, for which the EC50 stood at 28 nM.
As for `CCCC[C@H](NC(=O)[C@H](Cc1c[nH]c2ccccc12)NC(=O)[C@H](Cc1ccc(C(=O)c2ccccc2)cc1)NC(=O)[C@H](CCCC)NC(=O)[C@H](Cc1ccc(OS(=O)(=O)O)cc1)NC(=O)[C@H](CC(=O)O)NC(=O)CNC(=O)[C@H](N)Cc1ccc(O)cc1)C(=O)N[C@@H](CC(=O)O)C(=O)N[C@@H](Cc1ccc(C(=O)c2ccccc2)cc1)C(N)=O`, the EC50 was 150 nM.
In the case of `CCCC[C@H](NC(=O)[C@H](Cc1ccc(OS(=O)(=O)O)cc1)NC(=O)[C@H](CC(=O)O)NC(=O)CNC(=O)[C@H](N)Cc1ccc(O)cc1)C(=O)NCC(=O)N[C@@H](Cc1c[nH]c2ccccc12)C(=O)N[C@@H](CCCC)C(=O)N[C@@H](CC(=O)O)C(=O)N[C@@H](Cc1ccc(C(=O)c2ccccc2)cc1)C(N)=O`, the EC50 was 280 nM.
